Laboratory results as given in US10981896B2, “Indolinone derivatives as inhibitors of maternal embryonic leucine zipper kinase” (BOARD OF REGENTS, THE UNIVERSITY OF TEXAS SYSTEM, priority 2017, dated 2021).
Like-named read-outs stand apart in the source and are kept apart here. Values belong to the compound of their own block, whether it stands above or below them.

Assays:
Format in all cases: biochemical
[1] = molecular target: MELK (Homo sapiens (Human), UniProt Q14680); experiment: MELK p81-based kinase assay, dose-response (IC50/Ki); details: for IC50: 40 μM ATP
Sequence of MELK (Q14680 1-340): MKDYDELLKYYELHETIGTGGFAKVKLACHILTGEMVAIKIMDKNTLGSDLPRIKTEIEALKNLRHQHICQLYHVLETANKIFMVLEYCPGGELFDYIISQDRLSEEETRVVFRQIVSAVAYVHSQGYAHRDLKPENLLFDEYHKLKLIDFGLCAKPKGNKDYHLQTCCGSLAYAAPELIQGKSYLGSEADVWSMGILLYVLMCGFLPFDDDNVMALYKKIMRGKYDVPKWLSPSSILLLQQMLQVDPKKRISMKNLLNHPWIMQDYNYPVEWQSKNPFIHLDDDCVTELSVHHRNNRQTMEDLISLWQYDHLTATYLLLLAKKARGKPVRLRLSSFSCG
Protocol: MELK and its substrate, Bcl-G were both recombinantly expressed and purified for use in screening assays (See Methods). […] 10 nM MELK 340 and 10 μM Bcl-GL in kinase assay buffer (50 mM HEPES pH 7.5, 100 mM KCl, 0.1 mM EDTA, 0.1 mM EGTA, 10 mM MgCl2, 10 μg/mL BSA) with 10 mM DTT were added to either 10 μM or 1 μM inhibitor aliquoted into 96 well plates (final 1% DMSO). The mixture was incubated at room temperature for 30 minutes prior to initiation of the assay with 40 μM γ-^32P-ATP (100-1000 CPM/pmol). 40 μL aliquots were spotted onto a p81 96 well filter plate (Unifilter, Whatman), quenched, and washed with 75 mM O-phosphoric acid 8 times, followed by a final wash with acetone for drying. Wells were then filled with scintillation fluid, sealed, and quantified using a MicroBeta TriLux liquid scintillation counter (PerkinElmer). Each inhibitor plate was assayed in duplicate, with at least 4 wells without MELK to establish background and at least 4 wells without inhibitor as a negative control. All readings were corrected for background signal based on the average counts from the wells without enzyme. Percent inhibition, defined as [100−(CPM+inhibitor/average CPM of positive controls)*100], was determined first at 10 μM inhibitor. The top 50 inhibitors were then re-screened in duplicate at 1 μM.
At set time points (0.25, 0.5, 1, 1.5, and 2 min for assays containing 10 nM MELK and 1, 2, 4, 6, and 10 min for assays containing 1 nM MELK), 30 μL aliquots were taken from each reaction and spotted onto 2×2 cm squares of p81 paper. Papers were washed 4 times in 75 mM O-phosphoric acid and once in acetone. Labeled protein was quantified by its associated CPM determined on a Packard 1500 scintillation counter at a sigma value of 2. CPM were translated into nmol ^32P incorporated using Equation 1.
Rates in the presence of each concentration of inhibitor were determined by plotting nmol ^32P incorporated vs. time. These rates were normalized to rates obtained without inhibitor, and data were plotted in terms of fractional activity. In most cases, data were fit to Equation 2. If the IC50 approached the amount of enzyme used in the assay, data were re-fit to the equation for tight-binding inhibitors (the Morrison equation, […]). […] Data were transformed as discussed and fit to Equation 3.
IC50 values were used to estimate each inhibitor's Ki using the Cheng-Prusoff relationship for competitive inhibitors (Equation 4).

[2] = molecular target: NUAK1 (Homo sapiens (Human), UniProt O60285); experiment: Selectivity dose-response kinase assay, NUAK1; details: for Ki: 100 μM ATP
Sequence of NUAK1 (O60285 whole entry): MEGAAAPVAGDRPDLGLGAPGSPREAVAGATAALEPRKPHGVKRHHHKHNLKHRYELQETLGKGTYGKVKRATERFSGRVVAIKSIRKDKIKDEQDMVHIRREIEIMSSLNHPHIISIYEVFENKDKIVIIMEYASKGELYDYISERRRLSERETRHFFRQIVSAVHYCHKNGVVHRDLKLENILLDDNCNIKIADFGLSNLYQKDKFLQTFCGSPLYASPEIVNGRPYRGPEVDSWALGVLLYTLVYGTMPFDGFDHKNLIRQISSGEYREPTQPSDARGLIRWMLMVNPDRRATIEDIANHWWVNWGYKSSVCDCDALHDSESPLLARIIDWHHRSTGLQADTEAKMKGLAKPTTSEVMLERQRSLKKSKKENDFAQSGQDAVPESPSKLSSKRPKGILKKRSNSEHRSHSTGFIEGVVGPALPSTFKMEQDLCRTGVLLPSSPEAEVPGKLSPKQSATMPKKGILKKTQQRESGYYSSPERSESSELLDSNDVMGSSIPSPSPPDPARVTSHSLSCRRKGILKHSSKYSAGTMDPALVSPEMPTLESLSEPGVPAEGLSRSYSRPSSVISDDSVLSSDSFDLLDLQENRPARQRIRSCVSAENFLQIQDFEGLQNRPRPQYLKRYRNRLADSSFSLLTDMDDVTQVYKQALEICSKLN
From the text: (§1) CHK1 and NUAK1 were purchased from SignalChem (Vancouver, BC). The NUAK2, CHK, and SAMS peptides were purchased from BioSyn (Lewisville, Tex.). The sequence of CHK and NUAK2 peptides are described elsewhere (Sanchez Y, et al. Science (New York, N.Y.). 1997; 277(5331):1497-1501; Scott J W, et al. Sci Rep. 2015; 5:14436). ERK2, AMPK, CAMKK2, and Ets1 were produced in house as previously described (Waas W F, Dalby K N. The Journal of biological chemistry. 2002; 277(15):12532-12540; Neumann D, et al. Protein Expr Purif. 2003; 30(2):230-237; Waas W F, Dalby K N. Protein Expr Purif. 2001; 23(1):191-197). Apparent KM values for ATP under specific assay conditions were determined using respective experimental conditions in Table 8 with varied ATP (0-1.28 mM). All selectivity dose-response assays were performed in kinase assay buffer (see Inhibitor Library Screen) with 2 mM DTT and 100 μM γ-^32P-ATP with additional conditions listed in Table 8. IC50 and KM^ATP values were subsequently used to calculate Ki (Equation 4). Relative selectivity was determined by comparing Ki^Enzyme/Ki^MELK (termed φ in Table 7). […] Standard error from linear regression data was propagated internally in Prism and taken into account in nonlinear regression to determine IC50 or Ki.

[3] = molecular target: CHK1 (Homo sapiens (Human), UniProt O14757); experiment: Selectivity dose-response kinase assay, CHK1; details: for Ki: 100 μM ATP
Sequence of CHK1 (O14757 whole entry): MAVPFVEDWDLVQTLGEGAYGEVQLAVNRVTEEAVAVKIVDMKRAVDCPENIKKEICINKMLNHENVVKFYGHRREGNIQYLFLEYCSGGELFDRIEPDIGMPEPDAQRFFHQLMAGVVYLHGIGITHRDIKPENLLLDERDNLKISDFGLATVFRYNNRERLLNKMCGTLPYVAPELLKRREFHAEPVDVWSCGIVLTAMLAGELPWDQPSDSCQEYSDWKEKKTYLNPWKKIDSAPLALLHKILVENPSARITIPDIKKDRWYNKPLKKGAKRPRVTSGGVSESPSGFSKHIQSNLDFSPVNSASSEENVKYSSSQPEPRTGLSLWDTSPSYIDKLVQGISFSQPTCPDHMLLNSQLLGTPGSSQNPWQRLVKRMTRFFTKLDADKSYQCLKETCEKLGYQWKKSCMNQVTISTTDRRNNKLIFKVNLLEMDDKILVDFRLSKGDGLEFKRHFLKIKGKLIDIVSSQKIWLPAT
From the text: as §1

[4] = molecular target: AMPK (Rattus norvegicus (Rat), UniProt P54645); experiment: Selectivity dose-response kinase assay, AMPK; details: 100 μM ATP
Sequence of AMPK (Rattus norvegicus (Rat), UniProt P54645) (P54645 whole entry, looked up): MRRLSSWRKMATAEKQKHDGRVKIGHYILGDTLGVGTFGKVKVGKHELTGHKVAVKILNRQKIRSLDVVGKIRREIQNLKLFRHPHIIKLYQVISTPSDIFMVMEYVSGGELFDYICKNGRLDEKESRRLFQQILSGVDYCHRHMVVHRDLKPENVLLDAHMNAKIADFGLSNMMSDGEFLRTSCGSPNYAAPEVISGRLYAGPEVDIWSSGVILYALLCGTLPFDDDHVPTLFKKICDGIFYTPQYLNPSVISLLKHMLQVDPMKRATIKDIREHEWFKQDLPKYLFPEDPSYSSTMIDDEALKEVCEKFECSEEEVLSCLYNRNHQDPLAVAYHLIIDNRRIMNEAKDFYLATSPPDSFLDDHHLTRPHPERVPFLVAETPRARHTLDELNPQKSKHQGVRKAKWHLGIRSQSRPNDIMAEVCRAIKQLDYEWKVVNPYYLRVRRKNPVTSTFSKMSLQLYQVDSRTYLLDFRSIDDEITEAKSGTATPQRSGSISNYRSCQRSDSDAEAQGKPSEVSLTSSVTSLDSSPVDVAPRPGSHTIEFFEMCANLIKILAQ
Sequence of AMPK (Rattus norvegicus (Rat), UniProt P54645) (P80386 whole entry partner, looked up): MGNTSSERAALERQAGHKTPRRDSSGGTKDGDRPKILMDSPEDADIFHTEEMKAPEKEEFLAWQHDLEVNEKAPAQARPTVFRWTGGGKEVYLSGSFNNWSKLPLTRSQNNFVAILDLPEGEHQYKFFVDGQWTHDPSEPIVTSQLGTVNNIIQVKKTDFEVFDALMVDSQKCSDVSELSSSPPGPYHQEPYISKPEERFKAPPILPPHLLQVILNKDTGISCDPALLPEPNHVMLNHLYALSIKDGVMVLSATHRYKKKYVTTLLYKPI
Sequence of AMPK (Rattus norvegicus (Rat), UniProt P54645) (P80385 whole entry partner, looked up): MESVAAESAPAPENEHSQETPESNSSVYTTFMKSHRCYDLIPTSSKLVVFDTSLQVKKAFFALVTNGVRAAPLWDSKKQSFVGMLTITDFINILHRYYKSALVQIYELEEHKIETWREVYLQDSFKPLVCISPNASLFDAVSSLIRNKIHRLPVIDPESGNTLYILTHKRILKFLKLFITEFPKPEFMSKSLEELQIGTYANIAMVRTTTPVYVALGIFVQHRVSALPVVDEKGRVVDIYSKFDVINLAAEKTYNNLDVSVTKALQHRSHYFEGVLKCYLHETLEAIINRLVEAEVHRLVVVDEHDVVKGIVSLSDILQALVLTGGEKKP
From the text: as §1

[5] = system: AMPK; experiment: Selectivity dose-response kinase assay, AMPK
From the text: as §1

[6] = molecular target: CAMKK2 (Homo sapiens (Human), UniProt Q96RR4); experiment: Selectivity dose-response kinase assay, CAMKK2; details: for Ki: 100 μM ATP
Sequence of CAMKK2 (Q96RR4 whole entry, species assumed): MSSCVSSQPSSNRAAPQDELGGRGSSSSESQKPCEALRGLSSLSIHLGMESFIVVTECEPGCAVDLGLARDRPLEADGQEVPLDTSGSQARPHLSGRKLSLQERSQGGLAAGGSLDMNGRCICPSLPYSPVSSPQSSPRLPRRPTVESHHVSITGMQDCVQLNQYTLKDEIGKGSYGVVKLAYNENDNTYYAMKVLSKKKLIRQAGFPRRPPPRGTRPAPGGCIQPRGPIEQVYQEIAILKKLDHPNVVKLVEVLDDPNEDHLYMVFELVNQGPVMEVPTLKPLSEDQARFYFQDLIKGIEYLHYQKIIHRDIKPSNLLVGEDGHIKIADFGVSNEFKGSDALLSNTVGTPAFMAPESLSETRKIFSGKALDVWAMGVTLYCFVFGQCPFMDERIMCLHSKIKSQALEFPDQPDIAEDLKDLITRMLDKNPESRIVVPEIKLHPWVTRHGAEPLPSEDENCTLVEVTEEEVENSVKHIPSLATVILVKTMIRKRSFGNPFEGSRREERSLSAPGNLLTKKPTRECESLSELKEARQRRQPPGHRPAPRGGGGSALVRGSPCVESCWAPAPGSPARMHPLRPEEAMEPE
From the text: as §1

[7] = molecular target: ERK2 (Rattus norvegicus (Rat), UniProt P63086); experiment: Selectivity dose-response kinase assay, ERK2
Sequence of ERK2 (P63086 whole entry): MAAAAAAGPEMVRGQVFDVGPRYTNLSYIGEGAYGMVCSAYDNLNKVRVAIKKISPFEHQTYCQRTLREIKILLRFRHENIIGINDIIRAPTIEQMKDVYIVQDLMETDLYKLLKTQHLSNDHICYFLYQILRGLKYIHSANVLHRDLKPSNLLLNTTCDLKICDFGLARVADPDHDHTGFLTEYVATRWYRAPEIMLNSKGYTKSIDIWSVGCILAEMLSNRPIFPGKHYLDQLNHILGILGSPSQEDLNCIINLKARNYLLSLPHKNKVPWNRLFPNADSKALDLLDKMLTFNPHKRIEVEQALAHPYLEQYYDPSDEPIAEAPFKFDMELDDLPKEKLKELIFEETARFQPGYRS
From the text: as §1

[8] = cross-inhibition of MELK by known kinase inhibitors, read-out: IC50 ± SE
[9] = fragment and intermediate potency (synthetic intermediates), read-out: Ki ± SD
[10] = Ki calculated using Equation 4, [ATP] = 40 μM, KM app (ATP) = 6 μM
[11] = Ki calculated using Equation 4, [ATP] = 40 μM, KM app (ATP) = 6 μM, read-out: Ki ± SE
[12] = indolinone derivatives, read-out: IC50
[13] = selectivity table, MELK, read-out: Ki

SMILES: NC(=O)Nc1cc(-c2cccc(F)c2)sc1C(=O)N[C@@H]1CCCNC1 [AZD776, reference compound]
IC50 [1, 8]: 900 ± 91 nM

SMILES: c1cc(OCCN2CCCCC2)cc(-c2n[nH]c3ccc(-c4nc[nH]n4)cc23)c1 [CC401, reference compound]
IC50 [1, 8]: 340 ± 70 nM

SMILES: CCO/C(=C1\C(=O)N(C(C)=O)c2cc(C(=O)OC)ccc21)c1ccccc1 [Compound 6, Methyl (Z)-1-acetyl-3-(ethoxy(phenyl)methylene)-2-oxoindoline-6-carboxylate]
Ki [1, 9]: > 5000 nM

SMILES: CCO/C(=C1\C(=O)N(C(C)=O)c2ccc(C(=O)OC)cc21)c1ccccc1 [Compound 8, Methyl (Z)-1-acetyl-3-(ethoxy(phenyl)methylene)-2-oxoindoline-5-carboxylate]
Ki [1, 9]: > 5000 nM

SMILES: CN1CCN(CC(=O)N(C)c2ccc(N)cc2)CC1 [Compound 14, N-(4-Aminophenyl)-N-methyl-2-(4-methylpiperazin-1-yl)acetamide]
Ki [1, 9]: > 5000 nM

SMILES: CN1CCN(CC(=O)N(C)c2ccc(N/C(=C3\C(=O)Nc4ccccc43)c3ccccc3)cc2)CC1 [Compound 16, (Z)—N-Methyl-2-(4-methylpiperazin-1-yl)-N-(4-(((2-oxoindolin-3-ylidene)(phenyl)methyl)amino)phenyl)acetamide]
difference in Ki compared to MELK [2]: 5-10 fold
Ki [2]: 1.7 ± 0.17 nM
Ki [3]: 10 ± 0.5 nM
Ki [4]: 4.2 ± 0.3 nM
difference in Ki compared to MELK [5]: 5-10 fold
Ki ± SE [1, 10]: subnanomolar
Ki [1, 11]: 0.47 nM
IC50 [1, 12]: 3.6 ± 0.4 nM
Ki [1, 13]: 0.47 ± 0.06 nM
Ki [6]: 15 ± 1.8 nM

SMILES: CC(=O)c1ccc2c(c1)/C(=C(/Nc1ccc(N(C)C(=O)CN3CCN(C)CC3)cc1)c1ccccc1)C(=O)N2 [Compound 18, (Z)—N-(4-(((5-Acetyl-2-oxoindolin-3-ylidene)(phenyl)methyl)amino)phenyl)-N-methyl-2-(4-methylpiperazin-1-yl)acetamide]
Ki [1, 11]: 46 ± 4.6 nM
IC50 [1, 12]: 354 ± 35 nM

SMILES: CN1CCN(CC(=O)N(C)c2ccc(N/C(=C3\C(=O)Nc4cc(C(=O)O)ccc43)c3ccccc3)cc2)CC1 [Compound 20, (Z)-3-(((4-(N-Methyl-2-(4-methylpiperazin-1-yl)acetamido)phenyl)amino)(phenyl)methylene)-2-oxoindoline-6-carboxylic acid]
Ki [1, 11]: 149 ± 22 nM
IC50 [1, 12]: 1140 ± 168 nM

SMILES: CC(C)(C)c1nc2c3ccc(F)cc3c3c(=O)[nH]ccc3c2[nH]1 [Compound 420099, reference compound]
IC50 [1, 8]: 330 ± 37 nM

SMILES: O=C1Nc2ccc3scnc3c2/C1=C/c1cnc[nH]1 [Compound 527450, reference compound]
IC50 [1, 8]: 720 ± 100 nM

SMILES: N=C(N)NCCNS(=O)(=O)c1cccc2cnccc12 [HA-1004, reference compound]
IC50 [1, 8]: 440 ± 210 nM

SMILES: Cc1ccc([N+](=O)[O-])cc1S(=O)(=O)N(C)/N=C/c1cnc2ccc(Br)cn12 [PIK75, reference compound]
IC50 [1, 8]: 400 ± 72 nM

The remaining lines, values ahead:

φ = Ki Enzyme/Ki MELK [2]: 13 ± 0.2
Ki [2]: 8.6 ± 1.6 nM
difference in relative Ki compared to MELK [7]: > 100 fold
φ = Ki Enzyme/Ki MELK [7]: 28000 ± 0.2
Ki ([7]; 100 μM ATP): 19000 ± 3800 nM
difference in relative Ki compared to MELK [3]: > 100 fold
φ = Ki Enzyme/Ki MELK [3]: 120 ± 0.1
Ki [3]: 81 ± 5.6 nM
Ki [4]: 4.9 ± 0.6 nM
φ = Ki Enzyme/Ki MELK [5]: 7.2 ± 0.2
Ki ± SE [1, 10]: subnanomolar
Ki [1, 11]: 0.68 ± 0.07 nM
φ = Ki Enzyme/Ki MELK ([1]; MELK): 1.00
IC50 [1, 12]: 5.2 ± 0.5 nM
Ki [1, 13]: 0.68 ± 0.07 nM
difference in relative Ki compared to MELK [6]: > 100 fold
φ = Ki Enzyme/Ki MELK [6]: 125 ± 0.2
Ki [6]: 85 ± 9.2 nM
SMILES: CN1CCN(CC(=O)N(C)c2ccc(N/C(=C3\C(=O)Nc4ccc(C(=O)O)cc43)c3ccccc3)cc2)CC1 [Compound 21, (Z)-3-(((4-(N-Methyl-2-(4-methylpiperazin-1-yl)acetamido)phenyl)amino)(phenyl)methylene)-2-oxoindoline-5-carboxylic acid]

Ki [1, 11]: 358 ± 71 nM
IC50 [1, 12]: 2700 ± 540 nM
SMILES: CN(C)CCCNC(=O)c1ccc2c(c1)NC(=O)/C2=C(\Nc1ccc(N(C)C(=O)CN2CCN(C)CC2)cc1)c1ccccc1 [Compound 22, (Z)—N-(3-(Dimethylamino)propyl)-3-(((4-(N-methyl-2-(4-methylpiperazin-1-yl)acetamido)phenyl)amino)(phenyl)methylene)-2-oxoindoline-6-carboxamide]

IC50 [1, 12]: > 5000 nM
SMILES: CN1CCN(CC(=O)N(C)c2ccc(N/C(=C3\C(=O)Nc4cc(C(=O)NCCCN)ccc43)c3ccccc3)cc2)CC1 [Compound 23, (Z)—N-(3-Aminopropyl)-3-(((4-(N-methyl-2-(4-methylpiperazin-1-yl)acetamido)phenyl)amino)(phenyl)methylene)-2-oxoindoline-6-carboxamide]

Ki [1, 11]: 2.3 nM
IC50 [1, 12]: 18 ± 3.8 nM
SMILES: CNC(=O)c1ccc2c(c1)/C(=C(/Nc1ccc(N(C)C(=O)CN3CCN(C)CC3)cc1)c1ccccc1)C(=O)N2 [Compound 24, (Z)—N-Methyl-3-(((4-(N-methyl-2-(4-methylpiperazin-1-yl)acetamido)phenyl)amino)(phenyl)methylene)-2-oxoindoline-5-carboxamide]

IC50 [1, 8]: 760 ± 190 nM
SMILES: CCN(CC)CCNC(=O)c1c(C)[nH]c(/C=C2\C(=O)Nc3ccc(Cl)cc32)c1C [Compound 572660, reference compound]

IC50 [1, 8]: 225 ± 50 nM
SMILES: CCS(=O)(=O)Nc1ccc2c(c1)/C(=C(/Nc1ccc(CN3CCCCC3)cc1)c1ccccc1)C(=O)N2 [Hesperadin, reference compound]
